These results are taken from ChEMBL document CHEMBL5126611, “Design, Synthesis, and Biological Evaluations of Pyridyl 4,5,6,7-Tetrahydro-4,7-Methanobenzo[d]isoxazoles as Potent and Selective Inhibitors of 11β-Hydroxylase” (J Med Chem, 2022).

The nature of data set [1]: Cmax in Sprague-Dawley rat at 5 mg/kg, iv measured up to 24 hrs by LC-MS analysis. The class given is ADME, organism-based. Further details: dose 5 mg/kg, time < 24 hrs, route iv. The following applies: in vivo.
Another data set has as its target Cytochrome P450 3A4 (Homo sapiens, UniProt P08684). Description: Inhibition of human hepatic recombinant CYP3A using cocktail of substrate by LC-MS/MS analysis. Type of data set: ADME.
Data set [2] in a line: Reduction of cortisol elevation in Sprague-Dawley rat at 25 mg/kg, po measured after 4 hrs by liquid chromatography-tandem mass spectrometry analysis (reference value: 376+/- 22 ng/L). Type of data set: functional.
Data set [3] deals with T1, Cytochrome P450 11B2, mitochondrial (Homo sapiens, UniProt P19099).
T1 sequence (P19099 whole entry): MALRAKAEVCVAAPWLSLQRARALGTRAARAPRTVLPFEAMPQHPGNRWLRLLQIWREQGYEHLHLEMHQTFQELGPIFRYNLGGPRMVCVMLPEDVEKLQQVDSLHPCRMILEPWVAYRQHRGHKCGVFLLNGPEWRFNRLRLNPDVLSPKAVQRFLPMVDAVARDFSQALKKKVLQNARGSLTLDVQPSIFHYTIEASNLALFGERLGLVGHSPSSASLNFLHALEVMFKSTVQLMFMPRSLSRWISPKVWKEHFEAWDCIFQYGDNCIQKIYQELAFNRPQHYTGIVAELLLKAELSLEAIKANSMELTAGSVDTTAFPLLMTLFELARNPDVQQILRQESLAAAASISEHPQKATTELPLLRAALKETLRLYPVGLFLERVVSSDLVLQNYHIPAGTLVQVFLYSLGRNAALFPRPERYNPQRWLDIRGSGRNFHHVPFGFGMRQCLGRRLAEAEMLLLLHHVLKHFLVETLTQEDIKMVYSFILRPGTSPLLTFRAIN
Description: Inhibition of human CYP11B2 expressed in Chinese hamster V79 MZh cells using [14C]-deoxycorticosteron as substrate measured after 6 hrs by phosphoimager analysis. Type of data set: ADME, cell-based.

Data set [4] in a line: Selectivity ratio of IC50 for inhibition of human CYP11B2 to IC50 for inhibition of human CYP11B1. Type of data set: ADME.
Data set [5] is described as follows: Terminal half life in Sprague-Dawley rat at 5 mg/kg, iv measured up to 24 hrs by LC-MS analysis. The class given is ADME, organism-based. Particulars: in vivo, read-out: beta t1/2 (converted).
A short description of data set [6]: Clearance in Sprague-Dawley rat at 5 mg/kg, iv measured up to 24 hrs by LC-MS analysis. Type of data set: ADME, organism-based. The following applies: in vivo.
Data set [7] deals with T2, Cytochrome P450 11B1, mitochondrial (Rattus norvegicus, UniProt P15393).
T2 sequence (P15393 whole entry): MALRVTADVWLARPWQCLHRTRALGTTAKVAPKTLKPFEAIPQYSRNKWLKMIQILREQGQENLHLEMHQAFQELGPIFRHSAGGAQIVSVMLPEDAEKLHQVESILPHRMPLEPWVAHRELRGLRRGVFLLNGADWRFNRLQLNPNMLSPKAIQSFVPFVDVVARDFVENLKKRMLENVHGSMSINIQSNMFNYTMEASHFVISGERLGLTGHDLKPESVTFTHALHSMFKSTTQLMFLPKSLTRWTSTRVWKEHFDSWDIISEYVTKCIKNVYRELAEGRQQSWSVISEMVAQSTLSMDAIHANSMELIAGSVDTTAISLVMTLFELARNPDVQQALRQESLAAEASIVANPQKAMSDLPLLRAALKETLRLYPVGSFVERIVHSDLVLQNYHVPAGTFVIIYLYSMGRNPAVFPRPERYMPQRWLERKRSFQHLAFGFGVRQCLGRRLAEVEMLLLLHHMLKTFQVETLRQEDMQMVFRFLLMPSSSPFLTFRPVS
Description: Inhibition of rat CYP11B1. The class given is ADME.

A short description of data set [8]: Cytotoxicity against human HepG2 cells assessed as reduction in cell viability. The class given is toxicity, cell-based. The following applies: read-out: LC50 (the source's name).
The nature of data set [9]: Tmax in Sprague-Dawley rat at 25 mg/kg, po measured up to 24 hrs by LC-MS analysis. The class given is ADME, organism-based. The following applies: in vivo.
A short description of data set [10]: Bioavailability in Sprague-Dawley rat at 5 mg/kg, iv measured up to 24 hrs by LC-MS analysis. Type of data set: ADME, organism-based. The following applies: in vivo.
A further data set deals with T3, Cytochrome P450 1A2 (Homo sapiens, UniProt P05177).
T3 sequence (P05177 whole entry): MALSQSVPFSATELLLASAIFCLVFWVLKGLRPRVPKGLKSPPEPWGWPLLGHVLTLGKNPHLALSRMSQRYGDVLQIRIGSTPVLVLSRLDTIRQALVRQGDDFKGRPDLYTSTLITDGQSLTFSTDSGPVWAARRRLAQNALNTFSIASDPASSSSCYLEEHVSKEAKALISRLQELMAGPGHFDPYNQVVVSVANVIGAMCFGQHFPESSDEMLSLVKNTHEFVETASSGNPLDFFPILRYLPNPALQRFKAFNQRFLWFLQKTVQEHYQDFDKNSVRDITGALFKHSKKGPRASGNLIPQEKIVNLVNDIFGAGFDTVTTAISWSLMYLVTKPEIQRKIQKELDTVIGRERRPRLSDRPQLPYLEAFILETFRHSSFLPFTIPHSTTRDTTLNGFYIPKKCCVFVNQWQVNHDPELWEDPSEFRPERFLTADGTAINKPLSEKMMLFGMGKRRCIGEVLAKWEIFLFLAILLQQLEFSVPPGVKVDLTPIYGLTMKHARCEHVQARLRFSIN
Description: Inhibition of human hepatic recombinant CYP1A2 using cocktail of substrate by LC-MS/MS analysis. Type of data set: ADME.

Data set [11] can be described thus: Aqueous solubility of compound. The class given is physicochemical. The following applies: buffer.
A short description of data set [12]: Cytotoxicity against Chinese hamster V79 cells assessed as reduction in cell viability. Type of data set: toxicity, cell-based, Cricetulus griseus. Particulars: read-out: LC50 (the source's name).
The next data set deals with Cytochrome P450 2C9 (Homo sapiens, UniProt P11712). Description: Inhibition of human hepatic recombinant CYP2C9 using cocktail of substrate by LC-MS/MS analysis. Type of data set: ADME.
The target of another data set is T4, Aromatase (Homo sapiens, UniProt P11511).
T4 sequence (P11511 whole entry): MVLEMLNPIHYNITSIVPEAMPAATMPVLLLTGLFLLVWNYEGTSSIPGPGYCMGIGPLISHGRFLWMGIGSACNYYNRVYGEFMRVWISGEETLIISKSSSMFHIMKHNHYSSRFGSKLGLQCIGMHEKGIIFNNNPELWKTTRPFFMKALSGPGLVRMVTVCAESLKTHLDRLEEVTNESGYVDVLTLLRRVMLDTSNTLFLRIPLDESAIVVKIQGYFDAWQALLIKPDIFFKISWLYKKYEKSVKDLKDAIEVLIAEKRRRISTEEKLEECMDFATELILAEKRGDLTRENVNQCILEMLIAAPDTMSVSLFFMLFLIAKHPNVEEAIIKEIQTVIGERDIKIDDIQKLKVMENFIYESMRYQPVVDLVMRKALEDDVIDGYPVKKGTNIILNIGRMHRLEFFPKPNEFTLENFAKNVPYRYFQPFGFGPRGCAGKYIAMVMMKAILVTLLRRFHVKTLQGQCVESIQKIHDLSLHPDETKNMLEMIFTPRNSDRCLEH
Description: Inhibition of human placental microsome CYP19 using [1beta-3H]-androstenedione as substrate. Type of data set: ADME, microsomes, Placenta.

Data set [13] can be described thus: AUC (0 to infinity) in Sprague-Dawley rat at 5 mg/kg, iv measured up to 24 hrs by LC-MS analysis. Particulars: in vivo. Type of data set: ADME, organism-based. Further details: time < 24 hrs, dose 5 mg/kg, route iv.

pIC50: −log10 of the molar value. ≈ marks a conversion by molar mass, not a printed value. Some results are limits rather than exact numbers.

Sequence of Cytochrome P450 2C9 (P11712 whole entry): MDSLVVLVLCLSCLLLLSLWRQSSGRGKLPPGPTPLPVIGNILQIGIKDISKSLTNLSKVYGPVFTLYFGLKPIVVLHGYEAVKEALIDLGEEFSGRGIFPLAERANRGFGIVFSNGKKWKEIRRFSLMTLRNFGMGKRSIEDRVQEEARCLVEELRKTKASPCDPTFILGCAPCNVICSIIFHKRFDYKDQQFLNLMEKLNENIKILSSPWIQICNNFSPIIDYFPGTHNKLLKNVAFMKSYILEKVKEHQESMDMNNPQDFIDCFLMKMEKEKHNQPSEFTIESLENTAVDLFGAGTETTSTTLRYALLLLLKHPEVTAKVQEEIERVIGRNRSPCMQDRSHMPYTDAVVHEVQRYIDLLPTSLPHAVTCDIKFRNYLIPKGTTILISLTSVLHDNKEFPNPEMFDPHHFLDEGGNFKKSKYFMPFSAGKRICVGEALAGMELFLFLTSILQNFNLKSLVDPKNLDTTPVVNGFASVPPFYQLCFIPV
Sequence of Cytochrome P450 3A4 (P08684 whole entry): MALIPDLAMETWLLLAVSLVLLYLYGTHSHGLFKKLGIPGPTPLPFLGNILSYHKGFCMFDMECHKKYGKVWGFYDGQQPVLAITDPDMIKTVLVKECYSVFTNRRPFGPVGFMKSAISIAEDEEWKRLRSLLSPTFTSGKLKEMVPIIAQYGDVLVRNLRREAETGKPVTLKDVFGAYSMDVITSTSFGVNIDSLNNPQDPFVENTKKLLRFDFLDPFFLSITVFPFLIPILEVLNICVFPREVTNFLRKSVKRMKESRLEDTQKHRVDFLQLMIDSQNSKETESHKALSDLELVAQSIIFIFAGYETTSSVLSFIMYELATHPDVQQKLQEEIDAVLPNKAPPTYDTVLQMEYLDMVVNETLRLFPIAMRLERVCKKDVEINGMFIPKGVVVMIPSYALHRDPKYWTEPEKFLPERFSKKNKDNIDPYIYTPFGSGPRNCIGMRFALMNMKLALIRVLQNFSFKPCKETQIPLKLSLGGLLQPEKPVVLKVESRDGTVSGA

In [1], `O=C(Nc1ccc2[nH]ncc2c1)[C@]12ON=C(c3cccnc3)[C@H]1[C@@H]1CC[C@H]2C1` displayed a Cmax of 12700 ng/mL. Also, the pIC50 on Cytochrome P450 3A4 is less than 5.00; in data set [3], 5.95; in data set [7], 7.60; on Cytochrome P450 1A2, less than 5.00; at Cytochrome P450 2C9, less than 5.00; on Aromatase, less than 5.00. The compound further showed an Activity in [2] of 28 ng/L. In addition, the “Ratio IC50” value in data set [4] worked out at 125. The half-life in [5] was 4.5 h. Moreover, the CL in data set [6] was determined as 0.287 mL/min/kg. Moreover, the CC50 in data set [8] and in data set [12] was more than 50 µM throughout. In addition, the Tmax in data set [9] is 4.2 h. In data set [10], this compound yielded a bioavailability of 21.4%. In data set [11], the concentration in solution (solubility) was 196 µM (≈ 73.2 µg/mL). Besides, the AUC in data set [13] came out at 50928.7 ng·h/mL.
